Measured values from ChEMBL document CHEMBL5154651, “Substituent effect of benzyl moiety in nitroquinoxaline small molecules upon DNA binding: Cumulative destacking of DNA nucleobases leading to histone eviction” (Eur J Med Chem, 2022).
Values belong to the compound of their own block, whether it stands above or below them. Calls of active or inactive are those of the source. The calls are words filed in the database; no cut-off is given here.

Experiments:
GC rich DNA [1] = assay: Displacement of Ethidium bromide from native ds-GC12 short DNA (unknown origin) by Stern-Volmer quenching plot analysis; type: nucleic-acid assay
GC rich DNA [2] = assay: Disruption of native ds-GC12 DNA (unknown origin) base stacking interaction assessed as decrease in positive peak intensity at 283 nm by circular dichroism analysis; type: nucleic-acid assay
DNA [3] = assay: Induction of GC-rich pYUB12 plasmid DNA (unknown origin) unwinding assessed as complete conformational change as condensed form at DNA base-pair to compound ratio of 1:2 incubated for 16 hrs by mobility shift assay; type: nucleic-acid assay
DNA [4] = assay: Induction of GC-rich pYUB12 plasmid DNA (unknown origin) unwinding assessed as DNA structural changes at DNA base-pair to compound ratio of 1:6 incubated for 16 hrs by mobility shift assay; type: nucleic-acid assay
GC rich DNA [5] = assay: Disruption of native ds-GC12 DNA (unknown origin) base stacking interaction assessed as appearance of ICD at 320 to 330 nm by circular dichroism analysis; type: nucleic-acid assay
GC rich DNA [6] = assay: Disruption of native ds-GC12 DNA (unknown origin) base stacking interaction assessed as decrease in positive peak intensity at 283 nm at DNA base-pair to compound ratio of 1:4 by circular dichroism analysis; type: nucleic-acid assay
[7] = Induction of histone eviction from single assembled nucleosome (unknown origin) assessed as unwrapping of histone from nucleosome at 15 to 20 uM incubated for 4 hrs by silver staining based gel electrophoresis assay; details: dose 15-20 µM
Calf thymus DNA [8] = assay: Binding affinity to calf thymus DNA by isothermal titration calorimetry; type: nucleic-acid assay; details: Bos taurus
HCT-116 [9] = assay: Induction of apoptosis in human HCT-116 cells assessed as late apoptotic cells at 1 uM incubated for 24 hrs by Annexin V-FITC and propidium iodide staining based flow cytometry analysis (reference value: 0.3%); type: functional
HCT-116 [10] = assay: Induction of apoptosis in human HCT-116 cells assessed as early apoptotic cells at 0.75 uM incubated for 24 hrs by Annexin V-FITC and propidium iodide staining based flow cytometry analysis (reference value: 0.6%); type: functional
HCT-116 [11] = assay: Induction of apoptosis in human HCT-116 cells assessed as necrotic cells at 1 uM incubated for 24 hrs by Annexin V-FITC and propidium iodide staining based flow cytometry analysis (reference value: 3.9%); type: functional
GC rich DNA [12] = assay: Binding affinity to native ds-GC12 DNA assessed as increase in transition temperature of oligonucleotides at DNA-base pair to compound ratio of 1:4 by differential scanning calorimetry melting based analysis; type: nucleic-acid assay
HCT-116 [13] = assay: Induction of apoptosis in human HCT-116 cells assessed as necrotic cells at 0.75 uM incubated for 24 hrs by Annexin V-FITC and propidium iodide staining based flow cytometry analysis (reference value: 3.9%); type: functional
HCT-116 [14] = assay: Induction of apoptosis in human HCT-116 cells assessed as viable cells at 0.75 uM incubated for 24 hrs by Annexin V-FITC and propidium iodide staining based flow cytometry analysis (reference value: 95.3%); type: functional; details: read-out: Activity
HCT-116 [15] = assay: Induction of apoptosis in human HCT-116 cells assessed as late apoptotic cells at 0.75 uM incubated for 24 hrs by Annexin V-FITC and propidium iodide staining based flow cytometry analysis (reference value: 0.3%); type: functional
HCT-116 [16] = assay: Induction of apoptosis in human HCT-116 cells assessed as necrotic cells at 0.5 uM incubated for 24 hrs by Annexin V-FITC and propidium iodide staining based flow cytometry analysis (reference value: 3.9%); type: functional
[17] = Induction of histone eviction from single assembled nucleosome (unknown origin) assessed as maximum unwrapping of histone from nucleosome at 25 uM incubated for 4 hrs by silver staining based gel electrophoresis assay
HCT-116 [18] = assay: Induction of apoptosis in human HCT-116 cells assessed as late apoptotic cells at 0.5 uM incubated for 24 hrs by Annexin V-FITC and propidium iodide staining based flow cytometry analysis (reference value: 0.3%); type: functional
HCT-116 [19] = assay: Induction of apoptosis in human HCT-116 cells assessed as early apoptotic cells at 1 uM incubated for 24 hrs by Annexin V-FITC and propidium iodide staining based flow cytometry analysis (reference value: 0.6%); type: functional
DNA [20] = assay: Induction of GC-rich pYUB12 plasmid DNA (unknown origin) superstructure formation assessed as height of plasmid DNA at DNA base-pair to compound ratio of 1:1.5 by Atomic Force Microscopic analysis (reference value: 0.26 +/-0.08 nm); type: nucleic-acid assay
DNA [21] = assay: Induction of GC-rich pYUB12 plasmid DNA (unknown origin) superstructure formation assessed as uncoiling of DNA with nodes and loops formation and DNA compaction at DNA base-pair to compound ratio of 1:0.5 by Atomic Force Microscopic analysis; type: nucleic-acid assay
DNA [22] = assay: Induction of GC-rich pYUB12 plasmid DNA (unknown origin) unwinding assessed as complete structural change with DNA condensation by measuring increase in condensed DNA band intensity at DNA base-pair to compound ratio of 1:1.5 incubated for 16 hrs by mobility shift assay; type: nucleic-acid assay
HCT-116 [23] = assay: Induction of DNA double strand breaks in human HCT-116 cells assessed as increase in tail length at 0.5 to 0.75 uM incubated for 24 hrs by neutral comet assay; type: functional, cell-based; details: dose 0.5-0.75 µM
Calf thymus DNA [24] = assay: Binding affinity to calf thymus DNA assessed as change in free energy by isothermal titration calorimetry; type: nucleic-acid assay; details: Bos taurus
GC rich DNA [25] = assay: Binding affinity to native ds-GC12 DNA assessed as shift in melting temperature at DNA-base pair to compound ratio of 1:1 by differential scanning calorimetry melting based analysis; type: nucleic-acid assay
Calf thymus DNA [26] = assay: Binding affinity to calf thymus DNA assessed as change in entropy by isothermal titration calorimetry; type: nucleic-acid assay; details: Bos taurus
GC rich DNA [27] = assay: Disruption of native ds-GC12 DNA base (unknown origin) stacking interaction assessed as change in peak intensity at 283 nm at 15 to 60 uM by ellipticity plot based analysis; type: nucleic-acid assay; details: dose 15-60 µM
HCT-116 [28] = assay: Induction of apoptosis in human HCT-116 cells assessed as increase in uptake of fluorescent nucleotide at 0.5 to 0.75 uM incubated for 4 hrs by TUNEL assay; type: functional, cell-based; details: dose 0.5-0.75 µM
[29] = Induction of histone eviction from single assembled nucleosome (unknown origin) assessed as reduction in nucleosome band intensity at 60 uM incubated for 4 hrs by silver staining based gel electrophoresis assay
DNA [30] = assay: Induction of GC-rich pYUB12 plasmid DNA (unknown origin) superstructure formation assessed as DNA compaction with DNA over-supercoiling at DNA base-pair to compound ratio of 1:1.5 by Atomic Force Microscopic analysis; type: nucleic-acid assay
HCT-116 [31] = assay: Induction of apoptosis in human HCT-116 cells assessed as viable cells at 1 uM incubated for 24 hrs by Annexin V-FITC and propidium iodide staining based flow cytometry analysis (reference value: 95.3%); type: functional; details: read-out: Activity
GC rich DNA [32] = assay: Disruption of native ds-GC12 DNA (unknown origin) base stacking interaction assessed as deformation of DNA native structure at DNA base-pair to compound ratio of 1:4 by circular dichroism analysis; type: nucleic-acid assay
DNA [33] = assay: Binding affinity to GC-rich pYUB12 plasmid DNA (unknown origin) assessed as induction of DNA unwinding by measuring band shifting at DNA base-pair to compound ratio of 1:1 incubated for 16 hrs by mobility shift assay; type: nucleic-acid assay
HCT-116 [34] = assay: Induction of DNA double strand breaks in human HCT-116 cells incubated for 24 hrs by neutral comet assay; type: functional, cell-based; details: dose 0.5-0.75 µM, DDE = dose-dependent effect
HCT-116 [35] = assay: Induction of apoptosis in human HCT-116 cells assessed as viable cells at 0.5 uM incubated for 24 hrs by Annexin V-FITC and propidium iodide staining based flow cytometry analysis (reference value: 95.3%); type: functional; details: read-out: Activity
HCT-116 [36] = assay: Induction of DNA damage in human HCT-116 cells assessed as induction of phosphorylation of gamma-H2AX variant incubated for 4 hrs by DAPI staining based immunofluorescence analysis; type: functional, cell-based; details: HCT-116, 4 h
DNA [37] = assay: Induction of GC-rich pYUB12 plasmid DNA (unknown origin) superstructure formation assessed as DNA compaction with distorted structure at DNA base-pair to compound ratio of 1:1 by Atomic Force Microscopic analysis; type: nucleic-acid assay
HCT-116 [38] = assay: Induction of DNA damage in human HCT-116 cells assessed as induction of phosphorylation of gamma-H2AX variant at 0.75 uM incubated for 4 hrs by DAPI staining based immunofluorescence analysis; type: functional, cell-based
HCT-116 [39] = assay: Induction of apoptosis in human HCT-116 cells assessed as early apoptotic cells at 0.5 uM incubated for 24 hrs by Annexin V-FITC and propidium iodide staining based flow cytometry analysis (reference value: 0.6%); type: functional
Calf thymus DNA [40] = assay: Binding affinity to calf thymus DNA assessed as change in enthalpy by isothermal titration calorimetry; type: nucleic-acid assay; details: Bos taurus
Supercoiled DNA = assay: Induction of GC-rich pYUB12 plasmid DNA (unknown origin) unwinding assessed as complete structural change by measuring decrease in band intensity of supercoiled DNA at DNA base-pair to compound ratio of 1:1.5 incubated for 16 hrs by mobility shift assay; type: nucleic-acid assay
HCT-116 [41] = assay: Cytotoxicity against human HCT-116 cells assessed as reduction in cell viability incubated for 24 hrs by MTT assay; type: functional, cell-based; details: HCT-116, 24 h
GC rich DNA [42] = assay: Binding affinity to native ds-GC12 DNA assessed as reduction in melting temperature at DNA-base pair to compound ratio of 1:1 by differential scanning calorimetry melting based analysis; type: nucleic-acid assay
GC rich DNA [43] = assay: Disruption of native ds-GC12 DNA (unknown origin) base stacking interaction assessed as DNA structural changes at DNA base-pair to compound ratio of 1:4 by circular dichroism analysis; type: nucleic-acid assay

KSV (GC rich DNA [1]): 2.8 10^4/M
Activity (GC rich DNA [2]): Active
Activity (DNA [3]): Active
Activity (DNA [4]): Active
Activity (GC rich DNA [5]): Active
SMILES: CN(C)CCCNc1nc2cc([N+](=O)[O-])ccc2nc1NCc1ccc(Br)cc1

KSV (GC rich DNA [1]): 1.26 10^4/M
Activity (GC rich DNA [6]): Active
SMILES: CN(C)CCCNc1nc2cc([N+](=O)[O-])ccc2nc1NCc1ccc(F)cc1

Activity [7]: Active
KSV (GC rich DNA [1]): 5.8 10^4/M
Ka (Calf thymus DNA [8]): 4.66 10^5/M
Activity (GC rich DNA [2]): Active
ΔTm (GC rich DNA [12]): 12 °C
Activity [17]: Active
Activity (DNA [20]): 1.48 nm
Activity (DNA [21]): Active
Activity (DNA [22]): Active
deltaG (Calf thymus DNA [24]): -7.87 kcal/mol
Tm (GC rich DNA [25]): 49.5 °C
TdeltaS (Calf thymus DNA [26]): 6.12 kcal/mol
Activity (GC rich DNA [27]): Active
Activity [29]: Active
Activity (DNA [30]): Active
Activity (GC rich DNA [32]): Active
Activity (DNA [33]): Active
Activity (DNA [37]): Active
Activity (DNA [4]): Active
deltaH (Calf thymus DNA [40]): -1.75 kcal/mol
Activity (Supercoiled DNA): Active
ΔTm (GC rich DNA [42]): 2.5 °C
SMILES: CN(C)CCCNc1nc2cc([N+](=O)[O-])ccc2nc1NCc1ccc(I)cc1
Activity (HCT-116 [9]): 27%
Activity (HCT-116 [10]): 76.8%
Activity (HCT-116 [11]): 0.7%
Activity (HCT-116 [13]): 0.4%
viability at 0.75 µM (HCT-116 [14]): 1.7%
Activity (HCT-116 [15]): 21.1%
Activity (HCT-116 [16]): 0.3%
Activity (HCT-116 [18]): 18.2%
Activity (HCT-116 [19]): 69.3%
Activity (HCT-116 [23]): Active
Activity (HCT-116 [28]): Active
viability at 1 µM (HCT-116 [31]): 3%
Activity (HCT-116 [34]): Dde
viability at 0.5 µM (HCT-116 [35]): 2.2%
IC50 (HCT-116 [36]): 500 nM
Activity (HCT-116 [38]): Active
Activity (HCT-116 [39]): 79.2%
IC50 (HCT-116 [41]): 440 nM

Second part, the compound before the results:

SMILES: CN(C)CCCNc1nc2cc([N+](=O)[O-])ccc2nc1NCc1ccc([N+](=O)[O-])cc1
KSV (GC rich DNA [1]): < 1 10^4/M
Activity (GC rich DNA [6]): Active
Activity (DNA [4]): Active

SMILES: COc1ccc(CNc2nc3ccc([N+](=O)[O-])cc3nc2NCCCN(C)C)cc1
KSV (GC rich DNA [1]): < 1 10^4/M
Activity (GC rich DNA [6]): Active
Activity (DNA [4]): Active

SMILES: CN(C)CCCNc1nc2cc([N+](=O)[O-])ccc2nc1NCc1ccco1
KSV (GC rich DNA [1]): < 0.3 10^4/M

SMILES: CN(C)CCCNc1nc2cc([N+](=O)[O-])ccc2nc1NCc1cccs1
KSV (GC rich DNA [1]): < 0.3 10^4/M
Activity (GC rich DNA [43]): Active

SMILES: O=[N+]([O-])c1ccc2nc(NCc3ccccc3)c(N3CCCCC3)nc2c1
KSV (GC rich DNA [1]): 0.19 10^4/M
IC50 (HCT-116 [41]): > 50000 nM
